For one compound, ED results are on record in ChEMBL document CHEMBL4414643, “Pharmacokinetics of Phytocannabinoid Acids and Anticonvulsant Effect of Cannabidiolic Acid in a Mouse Model of Dravet Syndrome” (J Nat Prod, 2019).

The assay relates to Mus musculus. Put plainly: Anticonvulsant activity against hyperthermia-induced seizure in ip administered Scn1aRX/+ mouse model of Dravet syndrome assessed as effective dose causing increase in generalized tonic-clonic seizure temperature threshold measured by RET-3 rectal probe. Format: functional.

As to `C=C(C)[C@@H]1CCC(C)=C[C@H]1c1c(O)cc(CCCCC)cc1O` [CANNABIDIOL], the ED stood at 100 mg/kg.
